Legend:
Assay type in all cases: functional, organism-based
[1] = tested on: Plasmodium falciparum; test: Antimalarial activity after 96 hrs against azithromycin-resistant Plasmodium falciparum Dd2 by [3H]hypoxanthine uptake
[2] = tested on: Plasmodium falciparum; test: Antimalarial activity after 96 hrs against azithromycin-resistant Plasmodium falciparum 7G8 by [3H]hypoxanthine uptake
[3] = tested on: Plasmodium falciparum; test: Antimalarial activity after 96 hrs against Plasmodium falciparum Dd2 by [3H]hypoxanthine uptake
[4] = tested on: Plasmodium falciparum; test: Antimalarial activity after 96hrs against Plasmodium falciparum 7G8 by [3H]hypoxanthine uptake
[5] = tested on: Plasmodium falciparum; test: Antimalarial activity after 96hrs against Plasmodium falciparum GCO3 C2 mutant CRT/MDR1 by [3H]hypoxanthine uptake
[6] = tested on: Plasmodium falciparum; test: Antimalarial activity after 96 hrs against Plasmodium falciparum GCO3 C4 mutant CRT/MDR1 by [3H]hypoxanthine uptake
[7] = tested on: Plasmodium falciparum; test: Antimalarial activity after 96 hrs against Plasmodium falciparum GCO3 C6 mutant CRT/MDR1 by [3H]hypoxanthine uptake
[8] = tested on: Plasmodium falciparum; test: Antimalarial activity after 96 hrs against Plasmodium falciparum GCO3 SDD mutant CRT/MDR1 by [3H]hypoxanthine uptake
[9] = tested on: Plasmodium falciparum; test: Antimalarial activity after 96 hrs against Plasmodium falciparum GCO3 SND mutant CRT/MDR1 by [3H]hypoxanthine uptake
[10] = tested on: Plasmodium falciparum; test: Antimalarial activity after 96 hrs against Plasmodium falciparum GCO3 CDY mutant CRT/MDR1 by [3H]hypoxanthine uptake
[11] = tested on: Plasmodium falciparum; test: Antimalarial activity after 96 hrs against Plasmodium falciparum 3BA6 by [3H]hypoxanthine uptake
[12] = tested on: Plasmodium falciparum; test: Antimalarial activity against Plasmodium falciparum 3BA6 SDD with CRT and MDR1 mutation after 96 hrs in [3H]hypoxanthine uptake; details: 3BA6, MDR1
[13] = tested on: Plasmodium falciparum; test: Antimalarial activity after 96 hrs against Plasmodium falciparum 3BA6 SND mutant CRT/MDR1 by [3H]hypoxanthine uptake; details: 3BA6, MDR1
[14] = tested on: Plasmodium falciparum; test: Antimalarial activity after 96 hrs against Plasmodium falciparum 3BA6 CDY mutant CRT/MDR1 by [3H]hypoxanthine uptake; details: 3BA6, MDR1
[15] = tested on: Plasmodium falciparum; test: Antimalarial activity after 96 hrs against Plasmodium falciparum 7G8 C1 mutant CRT/MDR1 by [3H]hypoxanthine uptake; details: 7G8, MDR1
[16] = tested on: Plasmodium falciparum; test: Antimalarial activity after 96 hrs against Plasmodium falciparum Dd2 C1 mutant CRT/MDR1 by [3H]hypoxanthine uptake
[17] = tested on: Plasmodium falciparum; test: Antimalarial activity after 48 hrs against Plasmodium falciparum 7G8 by [3H]hypoxanthine uptake
[18] = tested on: Plasmodium falciparum; test: Antimalarial activity after 48 hrs against Plasmodium falciparum Dd2 by [3H]hypoxanthine uptake
[19] = tested on: Plasmodium falciparum; test: Antimalarial activity after 48 hrs against Plasmodium falciparum GCO3 by [3H]hypoxanthine uptake
[20] = tested on: Plasmodium falciparum; test: Antimalarial activity after 96 hrs against Plasmodium falciparum GCO3 by [3H]hypoxanthine uptake
[21] = tested on: Plasmodium falciparum; test: Antimalarial activity after 96 hrs against Plasmodium falciparum Dd2 T76K1 mutant CRT/MDR1 by [3H]hypoxanthine uptake
[22] = tested on: Plasmodium falciparum; test: Antimalarial activity after 96 hrs against Plasmodium falciparum 7G8 T76K1 mutant CRT/MDR1 by [3H]hypoxanthine uptake; details: 7G8, MDR1

Compound: C[C@H]1c2cccc(O)c2C(=O)C2=C(O)[C@]3(O)C(=O)C(C(N)=O)=C(O)[C@@H](N(C)C)[C@@H]3[C@@H](O)[C@@H]21 [DOXYCYCLINE]
- IC50 [1]: 302 nM
- IC50 [2]: 603 nM
- IC50 [3]: 432 nM
- IC50 [4]: 1440 nM

Compound: CN(C)[C@@H]1C(O)=C(C(N)=O)C(=O)[C@@]2(O)C(O)=C3C(=O)c4c(O)cccc4[C@@](C)(O)[C@H]3C[C@@H]12 [TETRACYCLINE]
- IC50 [1]: 324 nM
- IC50 [2]: 365 nM
- IC50 [3]: 397 nM
- IC50 [4]: 697 nM

Compound: CC[C@H]1OC(=O)[C@H](C)[C@@H](O[C@H]2C[C@@](C)(OC)[C@@H](O)[C@H](C)O2)[C@H](C)[C@@H](O[C@@H]2O[C@H](C)C[C@H](N(C)C)[C@H]2O)[C@](C)(O)C[C@@H](C)CN(C)[C@H](C)[C@@H](O)[C@]1(C)O [AZITHROMYCIN]
- IC50 [5]: 48 nM
- IC50 [6]: 66.7 nM
- IC50 [7]: 76.7 nM
- IC50 [8]: 63.3 nM
- IC50 [9]: 47.8 nM
- IC50 [10]: 70.2 nM
- IC50 [11]: 180 nM
- IC50 [12]: 155 nM
- IC50 [13]: 158 nM
- IC50 [14]: 194 nM
- IC50 [1]: 1940 nM
- IC50 [2]: 3970 nM
- IC50 [15]: 142 nM
- IC50 [16]: 95.7 nM
- IC50 [17]: 15700 nM
- IC50 [3]: 103 nM
- IC50 [18]: 3460 nM
- IC50 [19]: 22600 nM
- IC50 [4]: 228 nM
- IC50 [20]: 43.3 nM
- IC50 [21]: 122 nM
- IC50 [22]: 115 nM

Compound: Oc1cc(Cl)ccc1Oc1ccc(Cl)cc1Cl [TRICLOSAN]
- IC50 [17]: 774 nM
- IC50 [3]: 4190 nM
- IC50 [18]: 6260 nM
- IC50 [19]: 2710 nM
- IC50 [4]: 424 nM
- IC50 [20]: 1530 nM

Compound: CC[C@H]1OC(=O)[C@H](C)[C@@H](O[C@H]2C[C@@](C)(OC)[C@@H](O)[C@H](C)O2)[C@H](C)[C@@H](O[C@@H]2O[C@H](C)C[C@H](N(C)C)[C@H]2O)[C@](C)(O)C[C@@H](C)C(=O)[C@H](C)[C@@H](O)[C@]1(C)O [ERYTHROMYCIN]
- IC50 [1]: 20300 nM
- IC50 [2]: 39500 nM
- IC50 [3]: 9400 nM
- IC50 [4]: 34700 nM

Compound: C=C(NC(=O)C(=C)NC(=O)c1csc(C2=N[C@@H]3c4csc(n4)[C@H]4NC(=O)c5csc(n5)[C@H]([C@](C)(O)[C@@H](C)O)NC(=O)[C@H]5CSC(=N5)/C(=C/C)NC(=O)[C@H]([C@@H](C)O)NC(=O)c5csc(n5)[C@]3(CC2)NC(=O)[C@H](C)NC(=O)C(=C)NC(=O)[C@H](C)NC(=O)[C@H]([C@@H](C)CC)N[C@@H]2C=Cc3c([C@H](C)O)cc(nc3[C@H]2O)C(=O)O[C@@H]4C)n1)C(N)=O [THIOSTREPTON]
- IC50 [1]: 175 nM
- IC50 [2]: 217 nM
- IC50 [17]: 688 nM
- IC50 [3]: 292 nM
- IC50 [18]: 2110 nM
- IC50 [19]: 2280 nM
- IC50 [4]: 555 nM
- IC50 [20]: 916 nM

Source: ChEMBL document CHEMBL1156420, “In vitro efficacy, resistance selection, and structural modeling studies implicate the malarial parasite apicoplast as the target of azithromycin” (J Biol Chem, 2007)
